Data: paper PMC8452690, “Structural basis for small molecule targeting of Doublecortin Like Kinase 1 with DCLK1-IN-1” (Communications Biology, 2021)
Values joined by “and” are separate entries in the source; they are usually repeats but may differ in a detail not shown here. Equal entries are not always repeated. Where two headings read alike, the source gives them in different places. Marks after values point to notes of the source that are not given here.

Tests used:
[1] = biological target: T1, DCLK1-FL1Δ D511N tubulin polymerisation (MAP function) (Homo sapiens, UniProt O15075, D511N); assay: Tubulin polymerisation and pelleting assay with DCLK1-FL1Δ D511N; format: biochemical
T1 construct: DCLK1-FL1Δ (residues 50-686); 8XHis tag with TEV protease cleavage site (N); made in house; host or cells: Escherichia coli C41(DE3)
T1 sequence (O15075 50-686 isoform O15075-2 D511N): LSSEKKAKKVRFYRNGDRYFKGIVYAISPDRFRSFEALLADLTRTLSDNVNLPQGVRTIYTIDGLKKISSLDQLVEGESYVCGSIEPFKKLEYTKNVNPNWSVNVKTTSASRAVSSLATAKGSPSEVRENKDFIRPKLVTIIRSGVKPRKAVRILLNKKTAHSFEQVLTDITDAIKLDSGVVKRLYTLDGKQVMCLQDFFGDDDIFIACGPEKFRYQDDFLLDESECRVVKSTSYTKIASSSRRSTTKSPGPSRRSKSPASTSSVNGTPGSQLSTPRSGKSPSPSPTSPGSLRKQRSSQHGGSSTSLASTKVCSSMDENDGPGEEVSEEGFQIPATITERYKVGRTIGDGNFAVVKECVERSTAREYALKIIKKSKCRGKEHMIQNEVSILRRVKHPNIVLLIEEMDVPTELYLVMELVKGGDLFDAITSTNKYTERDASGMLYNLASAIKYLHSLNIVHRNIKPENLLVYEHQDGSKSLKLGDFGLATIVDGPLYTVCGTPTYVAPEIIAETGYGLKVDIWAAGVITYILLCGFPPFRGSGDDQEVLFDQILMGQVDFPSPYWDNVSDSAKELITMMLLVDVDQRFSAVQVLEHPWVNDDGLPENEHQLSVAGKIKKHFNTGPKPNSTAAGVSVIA
Method: Tubulin polymerisation assays were performed in buffer containing 80 mM PIPES at pH 6.9, 2.0 mM MgCl2, 0.5 mM EGTA, 2.5 mM β,γ-Methyleneguanosine 5’-triphosphate, and 10 μM tubulin and 5 μM DCLK1 for 1 h at 37 °C. For tubulin polymerisation in the presence of inhibitors, various concentrations of the inhibitors were first incubated with DCLK1 and allowed to stand on ice for 5 min before adding this mix to the tubulin polymerisation reaction. Following the tubulin polymerisation, the reaction mix was pelleted at 20,000 g for 20 min and the supernatant and the pellet fractions were run on a 12% SDS gel. The data shown are representative of two independent experiments.

DCLK1-FL1Δ D511N = biological target: T2, DCLK1-FL1Δ D511N (Homo sapiens, UniProt O15075, D511N); assay: SPR binding to immobilised DCLK1-FL1Δ D511N (non-phosphorylated); conditions: for Kd: 18 °C, DCLK1 FL1Δ D511N immobilised, mean ± SEM
T2 construct: DCLK1-FL1Δ (residues 50-686); 8XHis tag with TEV protease cleavage site (N); made in house; host or cells: Escherichia coli C41(DE3)
Method: SPR studies were carried out on a Biacore 2000 instrument (Cytivia). Proteins were immobilised at 25 °C using standard amine coupling to a CM5 chip (Cytivia) in immobilisation buffer consisting of 10 mM HEPES pH 7.4, 150 mM NaCl, 1 mM TCEP, 0.005% Tween P20, 1% (v/v) DMSO. To the active flow, cells were coupled either DCLK1-FL1Δ D511N or WT to a final density of approximately 7000 RU, followed by surface deactivation with 1 M ethanolamine. For each protein, coupling was performed at a concentration of 2 µM protein in 10 mM sodium acetate buffer pH 4.0, 1% (v/v) DMSO final, in the presence 10 µM of the moderate affinity compound FMF-03-149-01 (IC50 ~400 nM)[28] to help to stabilise the kinase domain during immobilsiation at low pH. A blank immobilisation was performed on the reference flow cell.
Binding experiments were performed at 18 °C in running buffer consisting of 20 mM HEPES, pH 7.4, 150 mM NaCl, 1 mM tris(2-carboxyethyl)phosphine (TCEP), 0.005% (v/v) Tween-P20, and 2% (v/v) DMSO. Compounds (10 mM stocks in 100% DMSO) were diluted in DMSO to 500 µM (DCLK1-NEG) or 25 µM (all other compounds) then in running buffer (without DMSO) to achieve the starting concentration with a final DMSO concentration of 2% (v/v). Samples were then serially titrated in running buffer containing 2% (v/v) DMSO to prepare each final concentration series (seven-point, three-fold serial dilution, 10 µM−13.7 nM for DCLK1-NEG, or 500−0.68 nM for all other compounds). Solutions were injected in multi-cycle format (in duplicate) without regeneration (contact time 80 s, flow rate 75 μL/min, dissociation time 600 s), with an extra wash (50% DMSO) after each injection.
Steady-state/kinetic binding data were fitted using the S200 BIAevaluation software (GE Healthcare). Sensorgrams from reference surfaces and blank injections were subtracted from the raw data (double-referencing), followed by solvent correction. Kinetic rate constants (kon and koff values) were obtained by fitting to 1:1 Langmuir binding model. Reported binding data represent mean ± SEM for three or four independent experiments. The dissociative half-life life (t1/2) for each inhibitor complex with DCLK1 was calculated from the fitted dissociation rate constant (koff), according to the equation 1 (t1/2 = ln(2)/koff.)

[2] = biological target: T3, DCLK1-KD (residues 372-649) (Homo sapiens, UniProt O15075); assay: Thermal shift stability assay, DCLK1-KD; format: binding; conditions: compound titration 2.5 to 40 μM
T3 construct: the DCLK1 kinase domain (DCLK1-KD; residues 372-649) by carrying out thermal stability assays; 8XHis tag with TEV protease cleavage site (N); made in house; host or cells: Escherichia coli C41(DE3)
T3 sequence (O15075 372-649 isoform O15075-2): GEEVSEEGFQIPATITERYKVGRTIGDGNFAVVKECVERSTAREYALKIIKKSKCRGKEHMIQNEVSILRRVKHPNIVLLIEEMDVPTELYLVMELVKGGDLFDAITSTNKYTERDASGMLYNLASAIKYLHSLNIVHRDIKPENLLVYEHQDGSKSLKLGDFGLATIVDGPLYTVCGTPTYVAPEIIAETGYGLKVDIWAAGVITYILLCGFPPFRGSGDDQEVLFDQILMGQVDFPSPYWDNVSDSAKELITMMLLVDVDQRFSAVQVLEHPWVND
Method: DCLK1 proteins were diluted in 150 mM NaCl, 20 mM Tris pH 8.0, 1 mM DTT to […] final concentration and assayed with the appropriate concentration of inhibitor in a total reaction volume of 25 μL. SYPRO Orange (Molecular Probes) was used as a fluorescence probe and detected at 530 nm. The data shown are representative of two independent experiments.

DCLK1-KD = biological target: DCLK1-KD; set-up: method as in PMID 32251410; conditions: read-out: KD by ITC; cited from earlier work

COc1cc(N2CCN(C)CC2)ccc1Nc1ncc2c(n1)N(C)c1ccccc1C(=O)N2CC(F)(F)F [DCLK1-IN-1]
effect on DCLK1-FL1Δ D511N ability to polymerise tubulin ([1]; 20 μM or 40 μM, pelleting / SDS-PAGE (Fig. 5d)): did not impact | aggregation and pelleting of DCLK1-FL1Δ D511N upon centrifugation ([1]; 40 μM, without tubulin polymerisation (Fig. 5d lanes 12, 13)): does not cause | kon, kinetic fitting (DCLK1-FL1Δ D511N): 5.1 ± 0.3 1/Ms (x 10^5) | off-rate faster relative to FMF-03-055-01 or XMD8-85 (DCLK1-FL1Δ D511N; SPR): ~ 2 fold | on-rate slower relative to FMF-03-055-01 or XMD8-85 (DCLK1-FL1Δ D511N; SPR): ~ 2 fold | affinity weaker than FMF-03-055-01 or XMD8-85 (DCLK1-FL1Δ D511N; SPR KD, DCLK1-FL1Δ D511N): 4−5 fold | Kd (DCLK1-FL1Δ D511N; SPR, read-out: KD, kinetic fitting (1:1 binding model)): 53 nM | Kd (DCLK1-FL1Δ D511N; SPR, read-out: KD, steady state fitting): 70 ± 4 nM | reduction in DCLK1 affinity compared to FMF-03-055-1 (DCLK1-FL1Δ D511N; discussion statement): five-fold reduction | koff (DCLK1-FL1Δ D511N; read-out: koff, kinetic fitting): 0.027 ± 0.001 s⁻¹ | kon (DCLK1-FL1Δ D511N; read-out: kon (Fig. 5c)): 510000 ± 30000 M⁻¹ s⁻¹ | binding by shift in melting temperature (ΔTm) [2]: bind DCLK1-KD | Kd (DCLK1-KD): 55 nM and 109 nM
